Converted amounts (≈) assume the structure as drawn. Read-outs that look alike come from different tables or passages of the source.
Experiments:
neoplastic cell lines = assay: MTS cytotoxicity, panel of cancer cell lines; format: cell-based, human; conditions: majority of the tested cancer cell lines; read-out: general cytotoxic activity (compound concentration that results in death of 50% of the cell)
Method: (§1) Ten thousand cells of human chronic myelocytic leukemia K562 were inoculated into each well of a 96-well microplate (manufactured by Corning Corp.) using Iscove's MDM medium (culture medium) containing 10% fetal calf serum (FCS). The same day, a dimethyl sulfoxide (DMSO) solution of each test compound prepared in a concentration of 10 mmol/L was further diluted with DMSO to the desired concentrations (0.1, 0.5, 1, 2.5, 5 and 10 micromol/L), and the diluted solution was added to each well. The individual wells were further cultured in 5% carbon dioxide at 37° C. for 72 hours. After completion of the culture, 10 μl MTS (3-(4,5-Dimethyl-2-thiazolyl)-5-(carboxymethoxyphenyl)-2-(4-sulfophenyl)-2H-tetrazolium, inner salt assay (CellTiter96® AQueous One Solution Cell Proliferation Assay, Promega) was added to each well, and culturing was performed in 5% carbon dioxide at 37° C. for 2 hours. Using a microplate spectrophotometer (Synergy 2 multi-mode microplate reader (BioTek)), the absorbance of each well was measured at 490 nm. The value for cells not incorporated with a test compound was designated as 100%. By comparing these values with the absorbance difference obtained at the well in which each test compound was added, the cell viability (% viability) after treatment with the test compound was calculated.
as §1, with “Two” for “Ten”, “prostate adenocarcinoma PC3” for “chronic myelocytic leukemia K562”, “Corp.), and” for “Corp.)”, “F12K (Ham's F12:[…] 1:1)” for “Iscove's MDM”, “The same day, a dimethyl sulfoxide (DMSO) solution of each test compound prepared in a concentration of 10 mmol/L was further diluted with DMSO to the desired concentrations (0.1, 0.5, 1, 2.5, 5 and 10 micromol/L), and the diluted solution was added to each well. The individual wells were further cultured in 5% carbon dioxide at 37° C. for 72 hours.” left out
Two thousand cells of human prostate carcinoma DU145 were inoculated into each well of a 96-well microplate (manufactured by Corning Corp.), and using DMEM medium (culture medium) containing 10% fetal calf serum (FCS). […] After completion of the culture, 10 μl MTS (3-(4,5-Dimethyl-2-thiazolyl)-5-(carboxymethoxyphenyl)-2-(4-sulfophenyl)-2H-tetrazolium, innersalt assay (CellTiter96® AQueous One Solution Cell Proliferation Assay, Promega) was added to each well, and culturing was performed in 5% carbon dioxide at 37° C. for 2 hours. Using a microplate spectrophotometer (Synergy 2 multi-mode microplate reader (BioTek)), the absorbance of each well was measured at 490 nm. The value for cells not incorporated with a test compound was designated as 100%. By comparing these values with the absorbance difference obtained at the well in which each test compound was added, the cell viability (% viability) after treatment with the test compound was calculated. […]

CLK1 [1] = target: T1, CLK1 (Homo sapiens, UniProt P49759); assay: Radiometric kinase assay (HotSpot)
T1 sequence (P49759 whole entry): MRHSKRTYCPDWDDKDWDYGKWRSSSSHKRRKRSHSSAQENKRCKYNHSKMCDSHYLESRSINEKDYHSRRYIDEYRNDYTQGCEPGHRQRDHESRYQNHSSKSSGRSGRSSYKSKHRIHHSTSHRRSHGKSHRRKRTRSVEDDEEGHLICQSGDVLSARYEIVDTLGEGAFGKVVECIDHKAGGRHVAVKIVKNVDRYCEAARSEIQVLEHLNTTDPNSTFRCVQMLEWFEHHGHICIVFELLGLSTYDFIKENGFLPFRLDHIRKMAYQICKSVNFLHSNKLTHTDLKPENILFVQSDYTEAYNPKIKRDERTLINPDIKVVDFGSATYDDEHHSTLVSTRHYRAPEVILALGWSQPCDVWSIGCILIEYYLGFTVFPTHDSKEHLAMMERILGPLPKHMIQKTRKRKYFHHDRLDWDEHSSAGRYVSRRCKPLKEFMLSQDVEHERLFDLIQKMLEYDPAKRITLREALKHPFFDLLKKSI
Method: Kinase assays were performed at Reaction Biology Corporation (www.reactionbiology.com, Malvern Pa.) using the “HotSpot” assay platform. This assay platform is based on a radiometric filtration binding assay and is considered as the “gold standard” to which non-radiometric methods are compared. In this assay format, the kinase reaction is performed in the presence of 32 P-γ-ATP or 33 P-γ-ATP, followed by binding of the final radioisotope labeled peptide product to filters after which unreacted phosphate is washed away and the levels of phosphorylated peptide are measured.

Solubility in pH 7.4 = conditions: phosphate buffer
Method: Compound stock solutions were prepared in DMSO to final concentrations of 1000 mM. For each compound studied, 12 solutions were prepared to cover concentrations from 0.001 to 1 mM. As a solvent 0.2 mM phosphate buffer (pH 7.4) was used. The final concentration of DMSO in the solutions was 1% (v/v). The solutions were left mixing for 24 hours at 37° C., 350 rpm and following incubation centrifuged for 5 minutes at 14500 rpm. The samples were then analyzed by RP HPLC using a C18 column and 0.2% solution of formic acid in water/acetonitrile mobile phase. […] The solubility was determined as the point as the point at which the concentration curve reaches plateau.

PIM2 = PIM2 (Homo sapiens, UniProt Q9P1W9); assay: KINOMEscan Max; format: binding; parameters: DNA tag (qPCR read-out); purchased Ambit Kinomescan
PIM2, sequence (Q9P1W9 whole entry): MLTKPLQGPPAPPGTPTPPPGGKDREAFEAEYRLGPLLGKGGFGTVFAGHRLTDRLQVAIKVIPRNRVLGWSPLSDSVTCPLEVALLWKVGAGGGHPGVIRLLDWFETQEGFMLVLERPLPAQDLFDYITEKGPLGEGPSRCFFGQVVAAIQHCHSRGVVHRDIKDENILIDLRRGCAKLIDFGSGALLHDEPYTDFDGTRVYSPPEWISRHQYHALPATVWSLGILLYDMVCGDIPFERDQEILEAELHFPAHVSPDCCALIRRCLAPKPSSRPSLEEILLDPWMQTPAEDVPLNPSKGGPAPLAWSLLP
Method: (§2) Kinase panel profiling was performed at Ambit Kinomescan (http://www.ambitbio.com/technology/) using the “KINOMEscan™ Max” assay platform, a high-throughput method for screening small molecule compounds against large numbers of human kinases. KINOMEscan™ is based on a competition binding assay that quantitatively measures the ability of a compound to compete with an immobilized, active-site directed ligand. The assay is performed by combining three components: DNA-tagged kinase; immobilized ligand; and a test compound. The ability of the test compound to compete with the immobilized ligand is measured via quantitative PCR of the DNA tag. For a description of Ambit's assay protocol, see Fabian et al. A small molecule-kinase interaction map for clinical kinase inhibitors. Nat. Biotechnol. 23, 329-336 (2005).

CLK1 [2] = target: T1, CLK1; assay: KINOMEscan Max; format: binding; parameters: DNA tag (qPCR read-out); purchased Ambit Kinomescan
Method: as §2

PIM1 = PIM1 (Homo sapiens, UniProt P11309); assay: KINOMEscan Max; format: binding; parameters: DNA tag (qPCR read-out); purchased Ambit Kinomescan
PIM1, sequence (P11309 whole entry): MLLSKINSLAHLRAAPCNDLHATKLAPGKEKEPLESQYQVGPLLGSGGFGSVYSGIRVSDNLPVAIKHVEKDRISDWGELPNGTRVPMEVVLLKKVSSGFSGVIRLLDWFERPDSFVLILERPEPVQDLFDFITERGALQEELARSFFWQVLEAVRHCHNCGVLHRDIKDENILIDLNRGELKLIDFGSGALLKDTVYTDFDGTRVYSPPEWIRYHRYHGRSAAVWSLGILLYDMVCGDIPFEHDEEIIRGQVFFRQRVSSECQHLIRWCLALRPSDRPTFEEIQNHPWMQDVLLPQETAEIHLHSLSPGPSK
Method: as §2

[3] = tested on: human breast adenocarcinoma MCF7 cells; assay: Growth inhibition test (MTS); format: cell-based; conditions: MCF-7; 72 hours
Method: as §1, with “Two” for “Ten”, “breast adenocarcinoma MCF7” for “chronic myelocytic leukemia K562”, “Corp.), and” for “Corp.)”, “DMEM” for “Iscove's MDM”

Compound `Brc1c(Br)c(Br)c2c(Br)n[nH]c2c1Br` [Compound K64, reference compound] has an EC50 (neoplastic cell lines) of over 10 µM.

For `Brc1c(Br)c(Br)c2[nH]cnc2c1Br` [TBI, reference compound], the EC50 (neoplastic cell lines) was over 10 µM.

Work on `Brc1c(Br)c(Br)c2[nH]c(NCCN3CCCCC3)nc2c1Br` [Compound 13, 4,5,6,7-tetrabromo-N-(2-(piperidin-1-yl)ethyl)-1H-benzo[d]imidazol-2-amine] yielded an IC50 (CLK1 [1]) of 594 nM.

With `NCCCNc1nc2c(Br)c(Br)c(Br)c(Br)c2[nH]1` [Compound 11, N-(3-aminopropyl)-4,5,6,7-tetrabromo-1H-benzo[d]imidazol-2-amine] the IC50 (CLK1 [1]) was 177 nM, the solubility at 24 h (Solubility in pH 7.4) was 370 µM (≈ 187 µg/mL) and the remaining binding at 1 µM (PIM2) was 0.85%. For the same compound, the remaining binding at 1 µM (CLK1 [2]) was 5.1%, the remaining binding at 1 µM (PIM1) was 4% and the “Cytotoxicity in MTS assay (ED50)” value [3] was 5.34 µM.

With `CN(C)c1nc2c(Br)c(Br)c(Br)c(Br)c2n1CC(=O)O` [Compound K66, reference compound] the EC50 (neoplastic cell lines) was over 10 µM.

`Brc1c(Br)c(Br)c2[nH]nnc2c1Br` [TBB, reference compound] gave an EC50 (neoplastic cell lines) of over 10 µM.

In the case of `CN1CCN(c2nc3c(Br)c(Br)c(Br)c(Br)c3[nH]2)CC1` [Compound 21, 4,5,6,7-tetrabromo-2-(4-methylpiperazin-1-yl)-1H-benzo[d]imidazole], the solubility at 24 h (Solubility in pH 7.4) is reported as under 10 µM and the “Cytotoxicity in MTS assay (ED50)” value [3] is reported as over 10 µM.

With `Brc1c(Br)c(Br)c2[nH]c(NCCN3CCOCC3)nc2c1Br` [Compound 16, 4,5,6,7-tetrabromo-N-(2-morpholinoethyl)-1H-benzo[d]imidazol-2-amine] the solubility at 24 h (Solubility in pH 7.4) was 23 µM (≈ 12.9 µg/mL) and the “Cytotoxicity in MTS assay (ED50)” value [3] was over 10 µM.

In the case of `CN(C)c1nc2c(Br)c(Br)c(Br)c(Br)c2[nH]1` [DMAT, reference compound], the IC50 (CLK1 [1]; read-out: Inhibitory activity (IC50 in nM) in radiometric cell free assay, CLK1, ATP 1 μM, Myelin Basic Protein 10 μM) is reported as 211 nM, the EC50 (neoplastic cell lines) is reported as over 10 µM and the “Cytotoxicity in MTS assay (ED50)” value [3] is reported as over 10 µM.

In the case of `Brc1c(Br)c(Br)c2[nH]c(NCCN3CCCC3)nc2c1Br` [Compound 14, 4,5,6,7-tetrabromo-N-(2-(pyrrolidin-1-yl)ethyl)-1H-benzo[d]imidazol-2-amine], the solubility at 24 h (Solubility in pH 7.4) is reported as 31 µM (≈ 16.9 µg/mL).

Source: US20110230481A2, “DERIVATIVES OF TETRABROMOBENZIMIDAZOLE, A PROCESS FOR THE PREPARATION THEREOF, A PHARMACEUTICAL COMPOSITION COMPRISING THE SAME, A METHOD OF USING THE SAME, A METHOD FOR MODULATING OR REGULATING SERINE/THREONINE KINASES, AND SERINE/THREONINE KINASES MODULATING AGENT” (SELVITA S.A., priority 2009, published 2011)
